The values that follow come from PubChem BioAssay (NCI).

Some test systems named below: SF-268 CNS; COLO 205 colon; HOP-62 NSCLC; MOLT-4 leukemia; OVCAR-4 ovarian; SK-MEL-28 melanoma; IGROV1 ovarian; HT29 colon; UACC-257 melanoma; DU-145 prostate.
Assay in all cases: NCI tumour cell line growth inhibition, 48 h

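Cells were grown in 96-well plates and exposed to each compound for 48 hours at five concentrations; endpoints were interpolated linearly between bracketing concentrations, or set to the highest concentration if not reached. TGI: total growth inhibition.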

As for `COc1ccc(Oc2nc3ccc(C(F)(F)F)cc3nc2-c2ccccc2)cc1`, the TGI in the experiment with SF-268 CNS, in the experiment with COLO 205 colon, with HOP-62 NSCLC, in the experiment with MOLT-4 leukemia, with OVCAR-4 ovarian and with SK-MEL-28 melanoma was above 100 µM each time. Further, the TGI in the experiment on IGROV1 ovarian, with HT29 colon, with UACC-257 melanoma and in the experiment on DU-145 prostate was above 100 µM each time.
For `NC(c1ccccc1)(C(F)(F)F)P1(=O)OC(=O)c2ccccc2O1` (stereo not given), the TGI in the experiment with SF-268 CNS, in the experiment with COLO 205 colon, with HOP-62 NSCLC, with MOLT-4 leukemia, in the experiment on OVCAR-4 ovarian and in the experiment with SK-MEL-28 melanoma was above 100 µM each time. The TGI in the experiment on IGROV1 ovarian, with HT29 colon, in the experiment on UACC-257 melanoma and with DU-145 prostate was above 100 µM each time.
Turning to `C=C(CC(=O)Nc1ccc(C(=O)OC)o1)C(=O)OC`, the TGI in the experiment on SF-268 CNS is above 100 µM; in the experiment on COLO 205 colon, 41.1 µM; with HOP-62 NSCLC, above 100 µM; in the experiment on MOLT-4 leukemia it was 47.8 µM; in the experiment on OVCAR-4 ovarian, 71.6 µM; with SK-MEL-28 melanoma it was 44.6 µM. For the same compound, the TGI in the experiment on IGROV1 ovarian was 55.5 µM; with HT29 colon it was 70.2 µM; in the experiment on UACC-257 melanoma, 44.5 µM; in the experiment on DU-145 prostate, above 100 µM.
As for `O=C1CSC2=NCC3(NN12)c1ccccc1-c1ccccc13`, the TGI in the experiment with SF-268 CNS, in the experiment on COLO 205 colon, in the experiment with HOP-62 NSCLC, in the experiment with MOLT-4 leukemia, in the experiment on OVCAR-4 ovarian and in the experiment on SK-MEL-28 melanoma was above 10 µM each time. In addition, the TGI in the experiment with IGROV1 ovarian, with HT29 colon, in the experiment with UACC-257 melanoma and in the experiment with DU-145 prostate was above 10 µM in each case.
As to `CC1(C)CN(c2ccccc2)C(=O)C1OC(=O)[C@@]1(C)C[C@@H]2C=C[C@H]1C2` (stereo not given in full), the TGI in the experiment with SF-268 CNS is 82.5 µM; in the experiment on COLO 205 colon it was 34 µM; with HOP-62 NSCLC it was 40.8 µM; with MOLT-4 leukemia, above 100 µM; in the experiment on OVCAR-4 ovarian it was 39.9 µM; in the experiment with SK-MEL-28 melanoma, 35.1 µM. The TGI is 41.3 µM in the experiment with IGROV1 ovarian, 28.8 µM in the experiment on HT29 colon, 42.5 µM with UACC-257 melanoma and above 100 µM in the experiment with DU-145 prostate.
As to `CC(=Nc1c2ccccc2nc2ccccc12)N(C)C`, the TGI is above 100 µM in the experiment with SF-268 CNS; 25.2 µM in the experiment on COLO 205 colon; 66.2 µM in the experiment on HOP-62 NSCLC; 44.8 µM in the experiment with MOLT-4 leukemia; 90.8 µM in the experiment on OVCAR-4 ovarian; 61.5 µM in the experiment on SK-MEL-28 melanoma. Also, the TGI in the experiment with IGROV1 ovarian is above 100 µM; in the experiment with HT29 colon it was 27.4 µM; in the experiment on UACC-257 melanoma it was 43.5 µM; in the experiment with DU-145 prostate, above 100 µM.
On to `O=C(OCCN1CCCCC1)C(c1ccccc1)C1(O)CCSCC1` (stereo not given), for which the TGI with SF-268 CNS, in the experiment on COLO 205 colon, in the experiment on HOP-62 NSCLC, in the experiment with MOLT-4 leukemia, in the experiment with OVCAR-4 ovarian and in the experiment on SK-MEL-28 melanoma was above 100 µM throughout. Besides, the TGI in the experiment on IGROV1 ovarian, in the experiment with HT29 colon, in the experiment on UACC-257 melanoma and in the experiment with DU-145 prostate was above 100 µM throughout.
`CC(C)(C)OC(=O)NC(Cc1ccc(O)cn1)C(N)=O` (stereo not given): the TGI in the experiment with SF-268 CNS, in the experiment on COLO 205 colon, with HOP-62 NSCLC, in the experiment on MOLT-4 leukemia, in the experiment on OVCAR-4 ovarian and in the experiment with SK-MEL-28 melanoma was above 100 µM each time. Besides, the TGI with IGROV1 ovarian, with HT29 colon, in the experiment on UACC-257 melanoma and in the experiment with DU-145 prostate was above 100 µM throughout.
For the compound `Cc1ccc(S(=O)(=O)NC(=O)NCCC(=O)O)cc1`, the TGI in the experiment on SF-268 CNS, with COLO 205 colon, in the experiment on HOP-62 NSCLC, in the experiment with MOLT-4 leukemia, in the experiment on OVCAR-4 ovarian and with SK-MEL-28 melanoma was above 100 µM throughout. The TGI in the experiment on IGROV1 ovarian, in the experiment with HT29 colon, in the experiment with UACC-257 melanoma and with DU-145 prostate was above 100 µM in each case.
With `CN(C)CCOC(=O)c1ccc(N)cc1`, the TGI with SF-268 CNS is above 100 µM; with COLO 205 colon, above 100 µM; in the experiment with HOP-62 NSCLC it was above 100 µM; in the experiment with MOLT-4 leukemia, 61.5 µM; in the experiment on OVCAR-4 ovarian, above 100 µM; in the experiment with SK-MEL-28 melanoma it was 67.5 µM. Further, the TGI in the experiment on IGROV1 ovarian is 74.9 µM; with HT29 colon, above 100 µM; in the experiment with UACC-257 melanoma it was 54 µM; with DU-145 prostate it was above 100 µM.
On to `O=c1[nH]c2ccccc2nc1/C=C(\O)C(F)F`, for which the TGI with SF-268 CNS, in the experiment with COLO 205 colon, with HOP-62 NSCLC, in the experiment on MOLT-4 leukemia, in the experiment on OVCAR-4 ovarian and with SK-MEL-28 melanoma was above 100 µM in each case. The TGI in the experiment with IGROV1 ovarian, in the experiment with HT29 colon, with UACC-257 melanoma and in the experiment with DU-145 prostate was above 100 µM throughout.
Take `S=C1C(=Nc2ccccc2)N(c2ccccc2)/C(=N\c2ccccn2)N1c1ccccc1`: the TGI was 31.4 µM in the experiment with SF-268 CNS; 22.7 µM in the experiment with COLO 205 colon; 30.1 µM with HOP-62 NSCLC; above 100 µM in the experiment on MOLT-4 leukemia; 29.5 µM in the experiment on OVCAR-4 ovarian; 30.5 µM in the experiment with SK-MEL-28 melanoma. For the same compound, the TGI in the experiment on IGROV1 ovarian was found to be 26.2 µM; in the experiment on HT29 colon it was 24.8 µM; with UACC-257 melanoma, 27.3 µM; with DU-145 prostate it was 35 µM.
Turning to `O=C(/C=C/c1ccc(-c2ccccc2)cc1)NCc1ccc(C(=O)NCCc2c[nH]c3ccccc23)cc1`, the TGI is above 100 µM in the experiment with SF-268 CNS; above 100 µM in the experiment with COLO 205 colon; 36.7 µM in the experiment on HOP-62 NSCLC; 38.8 µM in the experiment with MOLT-4 leukemia; 72.1 µM in the experiment with OVCAR-4 ovarian; above 100 µM with SK-MEL-28 melanoma. For the same compound, the TGI is above 100 µM in the experiment on IGROV1 ovarian, 29.3 µM with HT29 colon, above 100 µM in the experiment with UACC-257 melanoma and above 100 µM with DU-145 prostate.
As for `C=CCN(c1cc(OCc2ccccc2)c(NC(C)=O)cc1[N+](=O)[O-])S(C)(=O)=O`, the TGI was 51.3 µM in the experiment on SF-268 CNS; above 100 µM in the experiment with COLO 205 colon; 53 µM in the experiment on HOP-62 NSCLC; above 100 µM in the experiment with MOLT-4 leukemia; above 100 µM in the experiment on OVCAR-4 ovarian; above 100 µM in the experiment with SK-MEL-28 melanoma. Further, the TGI with IGROV1 ovarian is 45.4 µM; in the experiment with HT29 colon it was above 100 µM; with UACC-257 melanoma, above 100 µM; with DU-145 prostate, above 100 µM.
Turning to `O=C1OC2(C(F)(F)F)Oc3ccccc3CN2C12CCCCC2` (stereo not given), the TGI with SF-268 CNS is above 100 µM; in the experiment with COLO 205 colon, 34.7 µM; in the experiment on HOP-62 NSCLC it was 91.9 µM; with MOLT-4 leukemia it was 54.3 µM; with OVCAR-4 ovarian, above 100 µM; in the experiment on SK-MEL-28 melanoma, above 100 µM. Moreover, the TGI with IGROV1 ovarian was above 100 µM; in the experiment on HT29 colon, above 100 µM; in the experiment with UACC-257 melanoma, 71.4 µM; with DU-145 prostate it was above 100 µM.
For the compound `COCN1CCN=c2c1c1c3c(c4ccccc4n23)CCC1`, the TGI with SF-268 CNS, with COLO 205 colon, with HOP-62 NSCLC, in the experiment with MOLT-4 leukemia, in the experiment with OVCAR-4 ovarian and in the experiment on SK-MEL-28 melanoma was above 100 µM each time. Also, the TGI in the experiment with IGROV1 ovarian, in the experiment with HT29 colon, in the experiment with UACC-257 melanoma and with DU-145 prostate was above 100 µM each time.
For the compound `O=C(CN1CCCCC1)c1ccc2c(c1)Sc1ccccc1O2`, the TGI is 33.9 µM in the experiment on SF-268 CNS; 61.1 µM in the experiment on COLO 205 colon; 32.5 µM in the experiment with HOP-62 NSCLC; above 100 µM in the experiment with MOLT-4 leukemia; 27.5 µM in the experiment on OVCAR-4 ovarian; 37.8 µM in the experiment on SK-MEL-28 melanoma. Besides, the TGI is 23.5 µM with IGROV1 ovarian, 23.7 µM in the experiment with HT29 colon, 39.6 µM in the experiment on UACC-257 melanoma and 49.3 µM in the experiment on DU-145 prostate.
`N#Cc1c(N2CCCC2)ncn(Cc2ccccc2)c1=S`: the TGI with SF-268 CNS, with COLO 205 colon, in the experiment on HOP-62 NSCLC, with MOLT-4 leukemia, in the experiment on OVCAR-4 ovarian and in the experiment with SK-MEL-28 melanoma was above 100 µM each time. Besides, the TGI with IGROV1 ovarian, in the experiment with HT29 colon, with UACC-257 melanoma and in the experiment with DU-145 prostate was above 100 µM in each case.
Consider `COc1ccc(/C=C2\CC3C4CC=C5C[C@@H](O)CC[C@]5(C)C4CC[C@]3(C)\C2=N\O)cc1OC` (stereo not given in full), for which the TGI is above 100 µM in the experiment with SF-268 CNS; 67.1 µM with COLO 205 colon; above 100 µM in the experiment with HOP-62 NSCLC; above 100 µM with MOLT-4 leukemia; above 100 µM in the experiment with OVCAR-4 ovarian; above 100 µM in the experiment with SK-MEL-28 melanoma. Besides, the TGI with IGROV1 ovarian, in the experiment with HT29 colon, in the experiment on UACC-257 melanoma and in the experiment with DU-145 prostate was above 100 µM each time.
For `C=C1C(=O)O[C@H]2C/C(C)=C/CC/C(C)=C/CC[C@@](C)(O)[C@@H](I)C[C@@H]12`, the TGI with SF-268 CNS was 31.9 µM; in the experiment on COLO 205 colon, 24.9 µM; in the experiment on HOP-62 NSCLC, 30.9 µM; in the experiment with MOLT-4 leukemia, above 26.2 µM; in the experiment with OVCAR-4 ovarian, 15.4 µM; in the experiment on SK-MEL-28 melanoma, 30 µM. Besides, the TGI turned out to be 10.2 µM in the experiment with IGROV1 ovarian, 26.8 µM with HT29 colon, 25.5 µM with UACC-257 melanoma and 22.2 µM with DU-145 prostate.
